From patent US20260138959A1, “QUINAZOLINE DERIVATIVE COMPOUND AND USE THEREOF” (VORONOI INC., priority 2021, published 2026)

Key:
[1] = system: c-KIT V560G/D816V; experiment: Proliferation inhibitory activity on Ba/F3 cell (CellTiter-Glo, 72 hours), c-KIT V560G/D816V; type: cell-based; settings: Mus musculus, BaF3, c-KIT V560G/D816V cells, read-out: Cell (nM) c-KIT V560G/D816V (GI50 class)
Experimental: (§1) Ba/F3-TEL-PDGFRα(WT), Ba/F3-TEL-PDGFβ(WT), Ba/F3-c-KIT(D816V) (Kyinno, #KC-0138), c-KIT V560G/D816V, c-KIT D814Y were seeded at 3×10^3/100 μl/well in a clear bottom white 96-well plate. A culture solution containing compounds of 12 concentrations (0.00001-2 mM) serially diluted in 3 folds and the DMSO control group was added at 0.5 μl/well each to a final concentration of 0.00005-10 μM, and then incubated in a CO2 incubator at 37° C. for 72 hours. After 72 hours, the plate treated with the compound was taken out, CellTiter-Glo® Assay (Promega) solution was treated with 100 μl/well, followed by mixing well. After mixing well for about 10 minutes at room temperature, […] was measured using a microplate reader. The data were presented as percentages in proportion to treated cells based on the vehicle, GI50 (nM) values were calculated using GraphPad Prism 8.3.0 (GraphPad software Inc., San Diego).
(§2) The inhibitory activities of Ba/F3 expressing PDGFR-α, PDGFR-β, c-KIT(D816V), c-KIT V560G/D816V, and c-KIT D814Y measured as described above were measured and shown in Table 7 below (A: GI50≤200 nM; B: 200 nM<GI50≤500 nM; C: GI50>500 nM).

[2] = system: Ba/F3-c-KIT(D816V); experiment: Proliferation inhibitory activity on Ba/F3 cell (CellTiter-Glo, 72 hours), c-KIT(D816V); type: cell-based; settings: Mus musculus, BaF3, read-out: Ba/F3 (nM) c-KIT (D816V) (GI50 class)
Experimental: as §1, §2

SMILES	GI50 [1]	GI50 [2]
COc1cc2ncnc(-c3ccc(NC(=O)Cc4ccc(C(F)(F)F)cc4)cc3)c2cc1O[C@H]1CCCO1 [Example 156, (S)-N-(4-(7-methoxy-6-((tetrahydrofuran-2-yl)oxy)quinazolin-4-yl)phenyl)-2-(4-(trifluoromethyl)phenyl)acetamide]	200 to 500 nM	≤ 200 nM
COCCN1CCCC(COc2cc3ncnc(-c4ccc(NC(=O)Cc5ccc(C(F)(F)F)cc5)cc4)c3cc2OC)C1 (stereo not drawn) [Example 42, N-(4-(6-methoxy-7-((1-(2-methoxyethyl)piperidin-3-yl)methoxy)quinazolin-4-yl)phenyl)-2-(4-(trifluoromethyl)phenyl)acetamide]	≤ 200 nM	≤ 200 nM
COc1cc2c(-c3ccc(NC(=O)Cc4ccc(C(F)(F)F)cc4)cc3)ncnc2cc1OC[C@@H]1CCCNC1 [Example 73, (R)-N-(4-(6-methoxy-7-(piperidin-3-ylmethoxy)quinazolin-4-yl)phenyl)-2-(4-(trifluoromethyl)phenyl)acetamide]	≤ 200 nM	≤ 200 nM
COc1cc2c(-c3ccc(NC(=O)Cc4ccc(C(F)(F)F)cc4)cc3)ncnc2cc1OC[C@H]1CCN(C(=O)OC(C)(C)C)C1 [Example 36, tert-butyl (S)-3-(((6-methoxy-4-(4-(2-(4-(trifluoromethyl)phenyl)acetamido)phenyl)quinazolin-7-yl)oxy)methyl)pyrrolidin-1-carboxylate]	> 500 nM	≤ 200 nM
COc1cc2c(-c3ccc(NC(=O)Cc4cccc(C(F)(F)F)c4)cc3)ncnc2cc1OCC1CCNCC1 [Example 60, N-(4-(6-methoxy-7-(piperidin-4-ylmethoxy)quinazolin-4-yl)phenyl)-2-(3-(trifluoromethyl)phenyl)acetamide]	200 to 500 nM	≤ 200 nM
COc1cc2c(-c3ccc(NC(=O)Cc4ccc(C(F)(F)F)cc4)cc3)ncnc2cc1OC[C@H]1CCNC1 [Example 39, (S)-N-(4-(6-methoxy-7-(pyrrolidin-3-ylmethoxy)quinazolin-4-yl)phenyl)-2-(4-(trifluoromethyl)phenyl)acetamide]	200 to 500 nM	≤ 200 nM
COc1cc2c(-c3ccc(NC(=O)Cc4cccc(C(F)(F)F)c4)cc3)ncnc2cc1OCCCN1CCN(C)CC1 [Example 55, N-(4-(6-methoxy-7-(3-(4-methylpiperazin-1-yl)propoxy)quinazolin-4-yl)phenyl)-2-(3-(trifluoromethyl)phenyl)acetamide]	≤ 200 nM	≤ 200 nM
COc1cc2c(-c3ccc(NC(=O)Cc4ccc(C(F)(F)F)cc4)cc3)ncnc2cc1OC[C@@H]1CCN(C(=O)OC(C)(C)C)C1 [Example 35, tert-butyl (R)-3-(((6-methoxy-4-(4-(2-(4-(trifluoromethyl)phenyl)acetamido)phenyl)quinazolin-7-yl)oxy)methyl)pyrrolidin-1-carboxylate]	> 500 nM	≤ 200 nM
COc1cc2c(-c3ccc(NC(=O)Cc4ccc(Cl)c(C(F)(F)F)c4)cc3)ncnc2cc1OCC1CCNCC1 [Example 77, 2-(4-chloro-3-(trifluoromethyl)phenyl)-N-(4-(6-methoxy-7-(piperidin-4-ylmethoxy)quinazolin-4-yl)phenyl)acetamide]	200 to 500 nM	≤ 200 nM
CCN1CCC(COc2cc3ncnc(-c4ccc(NC(=O)Cc5ccc(C(F)(F)F)c(F)c5)cc4)c3cc2OC)CC1 [Example 80, N-(4-(7-((1-ethylpiperidin-4-yl)methoxy)-6-methoxyquinazolin-4-yl)phenyl)-2-(3-fluoro-4-(trifluoromethyl)phenyl)acetamide]	≤ 200 nM	≤ 200 nM
COc1cc2c(-c3ccc(NC(=O)Cc4ccc(C(F)(F)F)cc4)cc3)ncnc2cc1OCCCN1CCN(C(C)=O)CC1 [Example 141, N-(4-(7-(3-(4-acetylpiperazin-1-yl)propoxy)-6-methoxyquinazolin-4-yl)phenyl)-2-(4-(trifluoromethyl)phenyl)acetamide]	≤ 200 nM	≤ 200 nM
COc1cc2c(-c3ccc(NC(=O)Cc4ccc(C(F)(F)F)cc4)cc3)ncnc2cc1OCCCN1CCC(C)CC1 [Example 44, N-(4-(6-methoxy-7-(3-(4-methylpiperidin-1-yl)propoxy)quinazolin-4-yl)phenyl)-2-(4-(trifluoromethyl)phenyl)acetamide]	≤ 200 nM	≤ 200 nM
COc1cc2ncnc(-c3ccc(NC(=O)Cc4ccc(C(F)(F)F)cc4)cc3)c2cc1OCCCN1CCCC1 [Example 160, N-(4-(7-methoxy-6-(3-(pyrrolidin-1-yl)propoxy)quinazolin-4-yl)phenyl)-2-(4-(trifluoromethyl)phenyl)acetamide]	≤ 200 nM	≤ 200 nM
CCN1CCC(COc2cc3ncnc(-c4ccc(NC(=O)Cc5ccc(Cl)c(C(F)(F)F)c5)cc4)c3cc2OC)CC1 [Example 78, 2-(4-chloro-3-(trifluoromethyl)phenyl)-N-(4-(7-((1-ethylpiperidin-4-yl)methoxy)-6-methoxyquinazolin-4-yl)phenyl)acetamide]	≤ 200 nM	≤ 200 nM

Now from value to compound:

GI50 [1]	GI50 [2]	SMILES
200 to 500 nM	≤ 200 nM	COc1cc2c(-c3ccc(NC(=O)Cc4ccc(C(F)(F)F)cc4)cc3)ncnc2cc1OCCCCl [Example 23, N-(4-(7-(3-chloropropoxy)-6-methoxyquinazolin-4-yl)phenyl)-2-(4-(trifluoromethyl)phenyl)acetamide]
≤ 200 nM	≤ 200 nM	CCN1CCC(Oc2cc3c(-c4ccc(NC(=O)Cc5ccc(C(F)(F)F)cc5)cc4)ncnc3cc2OC)CC1 [Example 123, N-(4-(6-((1-ethylpiperidin-4-yl)oxy)-7-methoxyquinazolin-4-yl)phenyl)-2-(4-(trifluoromethyl)phenyl)acetamide]
≤ 200 nM	≤ 200 nM	COc1cc2c(-c3ccc(NC(=O)Cc4ccc(C(F)(F)F)cc4)cc3)ncnc2cc1OCc1cccnc1 [Example 29, N-(4-(6-methoxy-7-(pyridin-3-ylmethoxy)quinazolin-4-yl)phenyl)-2-(4-(trifluoromethyl)phenyl)acetamide]
≤ 200 nM	≤ 200 nM	CCN1CC[C@H](COc2cc3ncnc(-c4ccc(NC(=O)Cc5ccc(C(F)(F)F)cc5)cc4)c3cc2OC)C1 [Example 41, (S)-N-(4-(7-((1-ethylpyrrolidin-3-yl)methoxy)-6-methoxyquinazolin-4-yl)phenyl)-2-(4-(trifluoromethyl)phenyl)acetamide]
> 500 nM	≤ 200 nM	COc1ccc(CN2CC(Oc3cc4ncnc(-c5ccc(NC(=O)Cc6ccc(C(F)(F)F)cc6)cc5)c4cc3OC)C2)cc1 [Example 27, N-(4-(6-methoxy-7-((1-(4-methoxybenzyl)azetidin-3-yl)oxy)quinazolin-4-yl)phenyl)-2-(4-(trifluoromethyl)phenyl)acetamide]
> 500 nM	≤ 200 nM	COc1cc2c(-c3ccc(NC(=O)Cc4ccc(C(F)(F)F)cc4)cc3)ncnc2cc1OC1CNC1 [Example 24, N-(4-(7-(azetidine-3-yloxy)-6-methoxyquinazolin-4-yl)phenyl)-2-(4-(trifluoromethyl)phenyl)acetamide]
> 500 nM	≤ 200 nM	COc1cc2ncnc(-c3ccc(NC(=O)Cc4ccc(C(F)(F)F)cc4)cc3)c2cc1OC1CCNC1 (stereo not drawn) [Example 139, N-(4-(7-methoxy-6-(pyrrolidin-3-yloxy)quinazolin-4-yl)phenyl)-2-(4-(trifluoromethyl)phenyl)acetamide]
